In brackets after ≈: the same amount, converted by molar mass. Some results are limits rather than exact numbers.

What all share (assay): microbe, parasite or virus in culture
Common to all, as to type: cell-based
What all share (settings): Mycobacterium tuberculosis

For assay [1], the system named is FQ-R1 (Mtb strain resistant to fluoroquinolone).
The subject of assay [2] is INH-R1 (Mtb strain resistant to isoniazid).
Assay [3] concerns RIF-R2 (Mtb strain resistant to rifampicin).
For assay [4], the system named is RIF-R1 (Mtb strain resistant to rifampicin).
The test system of assay [5] is INH-R2 (Mtb strain resistant to isoniazid).

`O=C(C[n+]1cn(Cc2cccc(Cn3c[n+](CC(=O)c4ccc([N+](=O)[O-])cc4)c4ccccc43)n2)c2ccccc21)c1ccc([N+](=O)[O-])cc1.[Br-].[Br-]` [Compound 6f, 1,1′-(pyridine-2,6-diylbis(methylene))bis(3-(2-(4-nitrophenyl)-2-oxoethyl)-1H-benzo[d]imidazol-3-ium) bromide]: the IC50 (as a rule, the concentration needed to halve the response being measured) was 18 µM in assay [1]; 13 µM in assay [2]; 17 µM in assay [3]; 15 µM in assay [4]; 13 µM in assay [5]. Besides, the IC90 (commonly the concentration at which the effect reaches the 90% level) worked out at 38 µM in assay [1]; 21 µM in assay [2]; 31 µM in assay [3]; 24 µM in assay [4]; 22 µM in assay [5]. The MIC stood at 38 µM in assay [1]; 24 µM in assay [2]; 30 µM in assay [3]; 25 µM in assay [4]; 25 µM in assay [5].
For `CO[C@H]1/C=C/O[C@@]2(C)Oc3c(C)c(O)c4c(O)c(c(/C=N/N5CCN(C)CC5)c(O)c4c3C2=O)NC(=O)/C(C)=C\C=C\[C@H](C)[C@H](O)[C@@H](C)[C@@H](O)[C@@H](C)[C@H](OC(C)=O)[C@@H]1C` [Rifampicin, reference compound], the IC50 in assay [1] is 0.013 µM; in assay [3], over 50 µM; in assay [4] it was 1.2 µM; in assay [5] it was 0.0047 µM. For the same molecule, the IC90 in assay [1] is 0.039 µM; in assay [2], 0.022 µM; in assay [3], over 50 µM; in assay [4], 2.3 µM; in assay [5] it was 0.012 µM. Moreover, the MIC in assay [1] was 0.027 µM (≈ 0.0222 µg/mL); in assay [3] it was over 50 µM; in assay [5], 0.065 µM (≈ 0.0535 µg/mL).
For `O=[N+]([O-])c1cn(Cc2cccc(Cn3cnc([N+](=O)[O-])c3)n2)cn1` [Compound 2b, 2,6-bis((4-nitro-1H-imidazol-1-yl)methyl)pyridine], the IC50 in assay [1] amounted to 66 µM; in assay [2], 68 µM; in assay [3] it was 38 µM; in assay [4], 60 µM; in assay [5], 24 µM. Further, the IC90 in assay [1] is 92 µM; in assay [2] it was 90 µM; in assay [3], 61 µM; in assay [4] it was 160 µM; in assay [5], 28 µM. The MIC in assay [1] amounted to 102 µM (≈ 33.6 µg/mL); in assay [2] it was 98 µM (≈ 32.3 µg/mL); in assay [3], 68 µM (≈ 22.4 µg/mL); in assay [4], 111 µM (≈ 36.5 µg/mL); in assay [5] it was 28 µM (≈ 9.22 µg/mL).
On to `NNC(=O)c1ccncc1` [Isoniazid, reference compound], for which the IC50 in assay [1] is 0.36 µM; in assay [2] it was over 200 µM; in assay [3], 0.54 µM; in assay [4] it was 0.15 µM; in assay [5], over 200 µM. For the same molecule, the IC90 in assay [1] is 0.47 µM; in assay [2], over 200 µM; in assay [3] it was 0.6 µM; in assay [4] it was 0.21 µM; in assay [5], over 200 µM. Moreover, the MIC in assay [1] is 0.35 µM (≈ 0.048 µg/mL); in assay [2] it was over 200 µM; in assay [3], 0.62 µM (≈ 0.085 µg/mL); in assay [4] it was 0.17 µM (≈ 0.0233 µg/mL); in assay [5] it was over 200 µM.
Consider `c1cc(Cn2cnc3ccccc32)nc(Cn2cnc3ccccc32)c1` [Compound 5, 2,6-bis((1H-benzo[d]imidazol-1-yl)methyl)pyridine], for which the IC50 in assay [1], in assay [2], in assay [3], in assay [4] and in assay [5] was over 50 µM each time. For the same molecule, the IC90 in assay [1], in assay [2], in assay [3], in assay [4] and in assay [5] was over 50 µM each time. The MIC in assay [1], in assay [2], in assay [3], in assay [4] and in assay [5] was over 50 µM in each case.
For `O=C(C[n+]1cn(Cc2cccc(Cn3c[n+](CC(=O)c4ccccc4)c4ccccc43)n2)c2ccccc21)c1ccccc1.[Br-].[Br-]` [Compound 6c, 1,1′-(pyridine-2,6-diylbis(methylene))bis(3-(2-oxo-2-phenylethyl)-1H-benzo[d]imidazol-3-ium) bromide], the IC50 in assay [1] turned out to be 40 µM; in assay [2], 42 µM; in assay [3] it was 44 µM; in assay [4] it was 24 µM; in assay [5], 42 µM. The IC90 in assay [1] is over 200 µM; in assay [2] it was 170 µM; in assay [3], 120 µM; in assay [4], 110 µM; in assay [5] it was 150 µM. Further, the MIC in assay [1] came out at 200 µM; in assay [2] it was 120 µM; in assay [3], 100 µM; in assay [4] it was 87 µM; in assay [5], 110 µM.
With `O=C(C[n+]1ccn(Cc2cccc(Cn3cc[n+](CC(=O)c4ccc([N+](=O)[O-])cc4)c3)n2)c1)c1ccc([N+](=O)[O-])cc1.[Br-].[Br-]` [Compound 4f, 1,1′-(pyridine-2,6-diylbis(methylene))bis(3-(2-(4-nitrophenyl)-2-oxoethyl)-1H-imidazol-3-ium) bromide], the IC50 in assay [1] amounted to 49 µM; in assay [2], 46 µM; in assay [3], 40 µM; in assay [4] it was 35 µM; in assay [5], 39 µM. Further, the IC90 is 91 µM in assay [1]; 52 µM in assay [2]; 120 µM in assay [3]; 100 µM in assay [4]; 75 µM in assay [5]. For the same molecule, the MIC is 87 µM in assay [1]; 55 µM in assay [2]; over 200 µM in assay [3]; 67 µM in assay [4]; 65 µM in assay [5].
For the molecule `C[C@H]1COc2c(N3CCN(C)CC3)c(F)cc3c(=O)c(C(=O)O)cn1c23` [Compound C3, Levofloxacin, reference compound], the IC50 was 12 µM in assay [1]; 0.64 µM in assay [2]; 0.6 µM in assay [3]; 0.59 µM in assay [4]; 0.84 µM in assay [5]. Besides, the IC90 in assay [1] is 22 µM; in assay [2], 1.4 µM; in assay [3], 1.2 µM; in assay [4], 0.91 µM; in assay [5], 1.4 µM. The MIC in assay [1] stood at 20 µM (≈ 7.23 µg/mL); in assay [2] it was 1.2 µM (≈ 0.434 µg/mL); in assay [3] it was 1.1 µM (≈ 0.398 µg/mL).

For the origin of these results see paper PMC7421780 (Future Medicinal Chemistry, 2020).
